Literature values in patent US20140023701A1, “Method and Composition for Ameliorating the Effects tor a Subject Exposed to Radiation or Other Sources of Oxidative Stress” (priority 2011, published 2014).
Read-outs that look alike come from different tables or passages of the source.

Key:
[1] = tested on: Human
[2] = tested on: Human; remark: listed apart in the source
[3] = no observed adverse event level, most sensitive subgroup
[4] = tolerable upper intake level, daily intake

O=C(O)CCCC[C@@H]1SC[C@@H]2NC(=O)N[C@@H]21 [Biotin]
Human NOAEL [1, 3]: 2.5 mg

[Ca] [Calcium]
Human NOAEL [1, 3]: 1500 mg | Human UL (19-70 yo group) [2]: 2500 mg

Nc1nc2ncc(CNc3ccc(C(=O)N[C@@H](CCC(=O)O)C(=O)O)cc3)nc2c(=O)[nH]1 [Folate, folic acid]
Human NOAEL [1, 3]: 1 mg

[Mg] [Magnesium]
Human NOAEL [1, 3]: 700 mg | Human UL (19-70 yo group) [2, 4]: 350 mg

[Mn+2] [Manganese]
Human NOAEL [1, 3]: 10 mg | Human UL (19-70 yo group) [2]: 11 mg

[Mo] [Molybdenum]
Human NOAEL [1, 3]: 0.35 mg | Human UL (19-70 yo group) [2, 4]: 2 mg

O=C(O)c1cccnc1 [Niacin, inositol hexanicotinate]
Human UL (19-70 yo group) [2, 4]: 35 mg

CC(C)(CO)[C@@H](O)C(=O)NCCC(=O)O [Pantothenic acid, d-calcium pantothenate]
Human NOAEL [1, 3]: 1000 mg

Cc1ncc(CO)c(CO)c1O.Cl [Vitamin B6, pyridoxine hydrochloride]
Human NOAEL ([1]; human): 200 mg | Human UL (19-70 yo group) [2]: 100 mg

O=C1O[C@H]([C@@H](O)CO)C(O)=C1O [Vitamin C, ascorbic acid]
Human NOAEL [1, 3]: >1000 mg

C=C1CC[C@H](O)C/C1=C/C=C1\CCC[C@]2(C)[C@@H]([C@H](C)CCCC(C)C)CC[C@@H]12 [Vitamin D, cholecalciferol]
Human NOAEL [1, 3]: 800 IU

CC1=C(C/C=C(\C)CCC[C@H](C)CCC[C@H](C)CCCC(C)C)C(=O)c2ccccc2C1=O [Vitamin K, phytonadione]
Human NOAEL ([1]; human): 0.03 mg

Copper
Human NOAEL [1, 3]: 9 mg | Human UL (19-70 yo group) [2]: 10 mg

Vitamin A
Human NOAEL ([1]; human): 10,000 IU | Human UL (19-70 yo group) [2]: 10,000 U

Vitamin E
Human NOAEL ([1]; human): 1200 IU | Human UL (19-70 yo group) [2, 4]: 1490 IU

Zinc
Human NOAEL [1, 3]: 30 mg | Human UL (19-70 yo group) [2]: 40 mg

chromium polynicotinate
Human NOAEL [1, 3]: 1 mg

cyanocobalamin [Vitamin B12]
Human NOAEL [1, 3]: 3 mg
